Laboratory results reported in ChEMBL document CHEMBL1151649, “Modified smear method for screening potential inhibitors of platelet aggregation from plant sources” (1985).

Assays:
Assay type in all cases: functional
[1] = Antiplatelet activity in Sprague-Dawley rat platelet-rich plasma assessed as minimum drug level causing inhibition of ADP-induced platelet aggregation administered 2 mins before ADP challenge by modified smear method
[2] = Antiplatelet activity in Sprague-Dawley rat platelet-rich plasma assessed as minimum drug level causing inhibition of arachidonic acid-induced platelet aggregation administered 2 mins before arachidonic acid challenge by modified smear method
[3] = Antiplatelet activity in Sprague-Dawley rat platelet-rich plasma assessed as minimum drug level causing inhibition of collagen-induced platelet aggregation administered 2 mins before collagen challenge by modified smear method

SMILES | Activity [1] [µg/mL] | Activity [2] [µg/mL] | Activity [3] [µg/mL]
COc1ccc(Cc2nccc3cc(OC)c(OC)cc23)cc1OC [PAPAVERINE] | 100 | 10 | 25
CC(=O)Oc1ccccc1C(=O)O [ASPIRIN] | 1000 | 50 | 250
